Reference: US20260000656A1, “ANTIFUNGAL AGENTS WITH ENHANCED ACTIVITY IN ACIDIC PH” (Scynexis, Inc., priority 2017, published 2026)
Converted amounts (≈) assume the structure as drawn. Where two headings read alike, the source gives them in different places. Numbered stars: 1 amine (or outer) side, 2 acyl side, 3 side chain; on linkers, the order of the positions; unused ones are H or OH. Bridge positions count the residues as written; N and C are the ends. Square brackets hold non-standard residues; d marks the D form. Peptide text beside a SMILES is read from it. * marks the point of attachment. hTyr(3S-OH,4S-OH,3'-OSO3H) = N[C@H](C(=O)O)[C@H](O)[C@@H](O)c1ccc(O)c(OS(=O)(=O)O)c1; Orn(4R-OH,5R-OH) = O=C([C@H](C[C@@H](O)[C@@H](O)N[*:3])N[*:1])[*:2]; Pro(3S-OH,4S-Me) = C[C@H]1CN[C@H](C(=O)O)[C@H]1O; X1 = CCCCCOc1ccc(-c2cc(-c3ccc(C(=O)*)cc3)no2)cc1; Gln(3R-OH) = NC(=O)C[C@@H](O)[C@H](N)C(=O)O; Hyp = O=C(O)[C@@H]1C[C@@H](O)CN1

System: C. albicans isolates
Test: Broth microdilution susceptibility (CLSI M27-A3) at different medium pH
Type: cell-based, Candida albicans
Details: for MIC range: 50% inhibition, 10 vaginal isolates; for MIC50 / MIC90 / MIC: Candida albicans, 24 h
Procedure: Ten strains each of C. glabrata and C. albicans vaginal isolates were tested. The strains were obtained from recent clinical trial patients with vulvovaginal candidiasis (VVC) prior to treatment. Candida strains were obtained from the Mycology Reference Library (MRL) at Case Western Reserve University School of Medicine, Ohio, United States.
Susceptibility testing was performed using a broth microdilution method, according to CLSI M27-A3 guidelines (CLSI. 2008. Reference Method for Broth Dilution Antifungal Susceptibility Testing of Yeasts; Approved Standard—Third Edition. Clinical and Laboratory Standards Institute, CLSI document M27-A3). Antifungals and concentrations tested were SCY-078 and micafungin (both at concentrations within the range of 0.015 to 8 μg/ml) and fluconazole (at concentrations within the range of 0.125 to 64 μg/ml). A 0.1-ml C. albicans and C. glabrata inoculum of 0.5-2.5×10^3 blastospores/ml in RPMI 1640 medium was added to each microdilution well. ATCC strains of Candida parapsilosis and Candida krusei QC isolates were also included concurrently to ensure quality control. Antifungal susceptibility testing was carried out for each isolate in RPMI 1640 at pH 7 (to mimic RPMI medium used in testing the susceptibility of yeast by the CLSI M-27A3 document), pH 5.7, and pH 4.5 (to mimic the pH of the vaginal cavity) by adjusting the pH of the media using NaOH or HCl. […] Agents Chemother., 43: 1383-1386 (1999).
[…] SCY-078 powder was manufactured by Avista, Laboratories, NC. Micafungin and fluconazole were sourced from LGM Pharma.

CCCCCOc1ccc(-c2cc(-c3ccc(C(=O)N[C@H]4C[C@@H](O)[C@@H](O)NC(=O)[C@@H]5[C@@H](O)[C@@H](C)CN5C(=O)[C@H]([C@H](O)CC(N)=O)NC(=O)[C@H]([C@H](O)[C@@H](O)c5ccc(O)c(OS(=O)(=O)O)c5)NC(=O)[C@@H]5C[C@@H](O)CN5C(=O)[C@H]([C@@H](C)O)NC4=O)cc3)no2)cc1 [Micafungin, reference compound] (X1-[Orn(4R-OH,5R-OH)]T[Hyp][hTyr(3S-OH,4S-OH,3'-OSO3H)][Gln(3R-OH)][Pro(3S-OH,4S-Me)]; lactam 1-C)
MIC range (pH 4.5, 24 h): 0.25 to 0.5 µg/mL
MIC range (pH 5.72, 24 h): 0.063 to 1 µg/mL
MIC range (pH 7.0, 24 h): 0.25 µg/mL (≈ 0.197 µM)
MIC50 (pH 4.5): 0.5 µg/mL (≈ 0.394 µM)
MIC90 (pH 4.5): 0.5 µg/mL (≈ 0.394 µM)
MIC (pH 4.5, read-out: MIC (50% inhibition), C. albicans MRL 34366, pH 4.5, 24 hours): 0.5 µg/mL (≈ 0.394 µM)
MIC (pH 4.5, read-out: MIC (50% inhibition), C. albicans MRL 34367, pH 4.5, 24 hours): 0.5 µg/mL (≈ 0.394 µM)
MIC (pH 4.5, read-out: MIC (50% inhibition), C. albicans MRL 34372, pH 4.5, 24 hours): 0.5 µg/mL (≈ 0.394 µM)
MIC (pH 4.5, read-out: MIC (50% inhibition), C. albicans MRL 34373, pH 4.5, 24 hours): 0.5 µg/mL (≈ 0.394 µM)
MIC (pH 4.5, read-out: MIC (50% inhibition), C. albicans MRL 34374, pH 4.5, 24 hours): 0.5 µg/mL (≈ 0.394 µM)
MIC (pH 4.5, read-out: MIC (50% inhibition), C. albicans MRL 34385, pH 4.5, 24 hours): 0.5 µg/mL (≈ 0.394 µM)
MIC (pH 4.5, read-out: MIC (50% inhibition), C. albicans MRL 34389, pH 4.5, 24 hours): 0.5 µg/mL (≈ 0.394 µM)
MIC (pH 4.5, read-out: MIC (50% inhibition), C. albicans MRL 34399, pH 4.5, 24 hours): 0.5 µg/mL (≈ 0.394 µM)
MIC (pH 4.5, read-out: MIC (50% inhibition), C. albicans MRL 34408, pH 4.5, 24 hours): 0.25 µg/mL (≈ 0.197 µM)
MIC (pH 4.5, read-out: MIC (50% inhibition), C. albicans MRL 34449, pH 4.5, 24 hours): 0.5 µg/mL (≈ 0.394 µM)
MIC50 (pH 5.72): 1 µg/mL (≈ 0.787 µM)
MIC90 (pH 5.72): 1 µg/mL (≈ 0.787 µM)
MIC (pH 5.72, read-out: MIC (50% inhibition), C. albicans MRL 34366, pH 5.72, 24 hours): 0.5 µg/mL (≈ 0.394 µM)
MIC (pH 5.72, read-out: MIC (50% inhibition), C. albicans MRL 34367, pH 5.72, 24 hours): 0.5 µg/mL (≈ 0.394 µM)
MIC (pH 5.72, read-out: MIC (50% inhibition), C. albicans MRL 34372, pH 5.72, 24 hours): 1 µg/mL (≈ 0.787 µM)
MIC (pH 5.72, read-out: MIC (50% inhibition), C. albicans MRL 34373, pH 5.72, 24 hours): 1 µg/mL (≈ 0.787 µM)
MIC (pH 5.72, read-out: MIC (50% inhibition), C. albicans MRL 34374, pH 5.72, 24 hours): 1 µg/mL (≈ 0.787 µM)
MIC (pH 5.72, read-out: MIC (50% inhibition), C. albicans MRL 34385, pH 5.72, 24 hours): 1 µg/mL (≈ 0.787 µM)
MIC (pH 5.72, read-out: MIC (50% inhibition), C. albicans MRL 34389, pH 5.72, 24 hours): 1 µg/mL (≈ 0.787 µM)
MIC (pH 5.72, read-out: MIC (50% inhibition), C. albicans MRL 34399, pH 5.72, 24 hours): 1 µg/mL (≈ 0.787 µM)
MIC (pH 5.72, read-out: MIC (50% inhibition), C. albicans MRL 34408, pH 5.72, 24 hours): 0.063 µg/mL (≈ 0.0496 µM)
MIC (pH 5.72, read-out: MIC (50% inhibition), C. albicans MRL 34449, pH 5.72, 24 hours): 0.25 µg/mL (≈ 0.197 µM)
MIC50 (pH 7): 0.25 µg/mL (≈ 0.197 µM)
MIC90 (pH 7): 0.25 µg/mL (≈ 0.197 µM)
MIC (pH 7, read-out: MIC (50% inhibition), C. albicans MRL 34366, pH 7.0, 24 hours): 0.25 µg/mL (≈ 0.197 µM)
MIC (pH 7, read-out: MIC (50% inhibition), C. albicans MRL 34367, pH 7.0, 24 hours): 0.25 µg/mL (≈ 0.197 µM)
MIC (pH 7, read-out: MIC (50% inhibition), C. albicans MRL 34372, pH 7.0, 24 hours): 0.25 µg/mL (≈ 0.197 µM)
MIC (pH 7, read-out: MIC (50% inhibition), C. albicans MRL 34373, pH 7.0, 24 hours): 0.25 µg/mL (≈ 0.197 µM)
MIC (pH 7, read-out: MIC (50% inhibition), C. albicans MRL 34374, pH 7.0, 24 hours): 0.25 µg/mL (≈ 0.197 µM)
MIC (pH 7, read-out: MIC (50% inhibition), C. albicans MRL 34385, pH 7.0, 24 hours): 0.25 µg/mL (≈ 0.197 µM)
MIC (pH 7, read-out: MIC (50% inhibition), C. albicans MRL 34389, pH 7.0, 24 hours): 0.25 µg/mL (≈ 0.197 µM)
MIC (pH 7, read-out: MIC (50% inhibition), C. albicans MRL 34399, pH 7.0, 24 hours): 0.25 µg/mL (≈ 0.197 µM)
MIC (pH 7, read-out: MIC (50% inhibition), C. albicans MRL 34408, pH 7.0, 24 hours): 0.25 µg/mL (≈ 0.197 µM)
MIC (pH 7, read-out: MIC (50% inhibition), C. albicans MRL 34449, pH 7.0, 24 hours): 0.25 µg/mL (≈ 0.197 µM)
